Consider eleven compounds from ChEMBL document CHEMBL1201862, “PubChem BioAssay data set” (2004).

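Tested at 5 concentrations; 48 h exposure; 96-well plates; endpoints linearly interpolated, else capped at highest concentration. GI50 marks 50% less growth.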 The source made the active and inactive calls. Cut-off read from the data, not from the text of the source: active = GI50 up to about 1.1 µM and inactive = higher.

Assay in all cases: NCI anticancer screen, dose series, 48 h
For test [1], the system named is OVCAR-3.
Test [2] has as its system 786-0.
The subject of test [3] is MDA-MB-231.
Test [4] relates to MDA-N.
Test [5] has as its system MOLT-4.
For test [6], the system named is RPMI-8226.
The subject of test [7] is SR.
Test [8] has as its system A498.
Test [9] has as its system UACC-62.
The test system of test [10] is LOX IMVI.
The subject of test [11] is M14.
Test [12] deals with Hs-578T.
The subject of test [13] is OVCAR-8.
The subject of test [14] is CAKI-1.
The test system of test [15] is RXF 393.
In test [16] the test system is NCI/ADR-RES.
In test [17] the test system is SF-268.
Test [18] concerns CCRF-CEM.
The test system of test [19] is SK-MEL-28.

For `O=C(O)CCC(=O)c1ccc[nH]1`, the GI50 in [1], in [2], in [3], in test [4], in test [5] and in test [6] was > 100 µM (inactive) each time. For the same compound, the GI50 in test [7], in test [8], in test [9], in test [10], in [11] and in test [12] was > 100 µM (inactive) in each case. The GI50 in test [13], in [14], in [15], in test [16] and in test [17] was > 100 µM (inactive) each time.
For the compound `NS(=O)(=O)c1cc(C(=O)O)c(O)c2ccccc12`, the GI50 in test [1], in [2], in test [3], in test [4], in [5] and in [6] was > 100 µM (inactive) throughout. Also, the GI50 in test [7], in test [8], in [9], in test [10], in test [11] and in [18] was > 100 µM (inactive) in each case. Besides, the GI50 in [12] was 49.7 µM (inactive); in [13], > 100 µM (inactive); in test [14], > 100 µM (inactive); in [15], > 100 µM (inactive); in test [16] it was > 100 µM (inactive); in test [17], > 100 µM (inactive). Further, the GI50 in [19] is > 100 µM (inactive).
In the case of `Cc1ccccc1OC(C)C(=O)NN1C(=O)CSC1c1ccccc1` (stereo not given), the GI50 in test [1] was 58.7 µM (inactive); in [2], > 100 µM (inactive); in test [3] it was > 100 µM (inactive); in test [4] it was 53.2 µM (inactive); in test [5] it was < 0.01 µM (active); in [6], 34.2 µM (inactive). The GI50 in test [7] is 10.2 µM (inactive); in test [8], 34.3 µM (inactive); in test [9], 64.7 µM (inactive); in test [10], > 100 µM (inactive); in [11], > 100 µM (inactive); in [12], > 100 µM (inactive). Besides, the GI50 in [13] was > 100 µM (inactive); in test [14] it was > 100 µM (inactive); in [15], 45 µM (inactive); in test [16] it was 72.8 µM (inactive); in test [17] it was > 100 µM (inactive); in [19], > 100 µM (inactive).
Consider `C[C@]12CCC3=NCCN3C1=CC[C@@H]1[C@@H]2CC[C@@]2(C)[C@H]1CC[C@]2(C)O`, for which the GI50 in [1] is > 100 µM (inactive); in test [2], 14.6 µM (inactive); in [3], > 100 µM (inactive); in test [4], 61.9 µM (inactive); in test [5], 35.3 µM (inactive); in test [6], 15 µM (inactive). Moreover, the GI50 was 38.8 µM (inactive) in test [7]; 26.9 µM (inactive) in [8]; 29.3 µM (inactive) in test [9]; 32.2 µM (inactive) in test [10]; 89.1 µM (inactive) in [11]; 30.5 µM (inactive) in test [12]. For the same compound, the GI50 is 45.9 µM (inactive) in test [13]; > 100 µM (inactive) in test [14]; 23 µM (inactive) in [15]; > 100 µM (inactive) in test [16]; 76.7 µM (inactive) in [17]; 28.8 µM (inactive) in test [19].
As for `Cc1cc2nc3c(C#N)c4c(c(-c5ccc(Cl)cc5)n3c2cc1C)CCC4`, the GI50 in [1] was 20.3 µM (inactive); in [2], 19.4 µM (inactive); in test [3] it was 22.2 µM (inactive); in [4] it was 28.8 µM (inactive); in [5], 25.1 µM (inactive); in [6], 26.5 µM (inactive). For the same compound, the GI50 was 23.8 µM (inactive) in [7]; 28.1 µM (inactive) in test [8]; 18.4 µM (inactive) in [9]; 30.2 µM (inactive) in test [10]; 17.5 µM (inactive) in test [11]; 24.2 µM (inactive) in test [18]. Further, the GI50 in test [12] was 25.1 µM (inactive); in test [14] it was 19.4 µM (inactive); in [15], 45 µM (inactive); in test [16] it was 41.1 µM (inactive); in [17] it was 24.3 µM (inactive); in test [19], 23.7 µM (inactive).
On to `N=C(N)NCCN1CC2CCC(CC2)C1`, for which the GI50 in test [1] is > 100 µM (inactive); in test [2], > 100 µM (inactive); in test [3], > 100 µM (inactive); in test [4] it was 51.9 µM (inactive); in test [5] it was > 100 µM (inactive); in test [6], > 100 µM (inactive). The GI50 was > 100 µM (inactive) in test [7]; > 100 µM (inactive) in test [8]; > 100 µM (inactive) in test [9]; > 100 µM (inactive) in test [10]; > 100 µM (inactive) in test [11]; 91.4 µM (inactive) in [12]. Also, the GI50 in test [13], in test [14], in [15], in [16], in test [17] and in test [19] was > 100 µM (inactive) throughout.
In the case of `CCCCOCCOC1=CC(=O)c2c(O)ccc(O)c2C1=O`, the GI50 in [1] is 1.67 µM (inactive); in test [2], 1.67 µM (inactive); in [3], 1.95 µM (inactive); in test [4] it was 0.185 µM (active); in [5], 1.28 µM (inactive); in test [6] it was 2.91 µM (inactive). In addition, the GI50 in test [7] was 1.24 µM (inactive); in test [8], 1.64 µM (inactive); in test [9], 1.51 µM (inactive); in test [10] it was 1.73 µM (inactive); in test [11], 1 µM (active); in [18] it was 1.22 µM (inactive). In addition, the GI50 is 2.22 µM (inactive) in test [12]; 1.78 µM (inactive) in [14]; 1.66 µM (inactive) in test [15]; 2.12 µM (inactive) in [16]; 1.76 µM (inactive) in test [17]; 1.62 µM (inactive) in [19].
With `Cc1ncc(C/N=C/c2ccc(Cl)cc2)c(N)n1`, the GI50 in test [1], in [2], in test [3], in test [4], in test [5] and in [6] was > 100 µM (inactive) throughout. In addition, the GI50 in [7], in test [8], in [9], in test [10], in test [11] and in [18] was > 100 µM (inactive) in each case. The GI50 in test [12], in test [13], in test [14], in test [15], in test [16] and in [17] was > 100 µM (inactive) in each case. In addition, the GI50 in test [19] was > 100 µM (inactive).
For `COc1ccc2c(c1)C(=O)[C@@](Nc1ccc(C=O)cc1)(OC)[C@@](OC)(c1ccc([N+](=O)[O-])cc1)O2`, the GI50 in test [1], in test [2], in test [3], in test [4], in test [5] and in test [6] was > 10 µM (inactive) in each case. For the same compound, the GI50 in test [7], in [8], in test [9], in [10], in test [11] and in test [18] was > 10 µM (inactive) in each case. The GI50 in test [12], in test [13], in [14], in test [15], in [16] and in test [17] was > 10 µM (inactive) in each case. Besides, the GI50 in test [19] was > 10 µM (inactive).
As for `CC(C)c1nc(Cl)nc(Cl)c1Cl`, the GI50 in [1] was 0.142 µM (active); in test [2] it was 0.104 µM (active); in test [3], 1.24 µM (inactive); in test [4] it was 0.679 µM (active); in test [5] it was 0.0284 µM (active); in [6], 0.142 µM (active). Moreover, the GI50 was < 0.01 µM (active) in test [7]; 3.27 µM (inactive) in test [8]; 0.266 µM (active) in [9]; < 0.0365 µM (active) in test [10]; 0.0843 µM (active) in [11]; < 0.01 µM (active) in test [18]. In addition, the GI50 was 0.302 µM (active) in test [12]; 0.436 µM (active) in test [13]; < 0.01 µM (active) in test [14]; 0.365 µM (active) in [15]; 0.295 µM (active) in test [16]; 1.16 µM (inactive) in test [17]. Moreover, the GI50 in test [19] was 0.357 µM (active).
In the case of `CC(=O)O[C@H]1C(=O)[C@@]2(C)[C@H]([C@H](OC(=O)c3ccccc3)[C@]3(O)C[C@H](OC(=O)[C@H](O)[C@@H](NC(=O)CC(C)C)c4ccccc4)C(C)=C1C3(C)C)[C@]1(OC(C)=O)CO[C@@H]1C[C@@H]2O`, the GI50 in test [2] was 0.0378 µM (active); in test [3] it was > 10 µM (inactive); in [4] it was 0.0906 µM (active); in test [5], 0.00149 µM (active); in test [6], < 0.001 µM (active); in test [7] it was 0.00171 µM (active). Further, the GI50 in test [8] is 0.247 µM (active); in [9], 0.00475 µM (active); in test [10], 0.00619 µM (active); in test [18], 0.00198 µM (active); in [12], 0.0018 µM (active); in test [13], 0.00548 µM (active). The GI50 in test [14] was 0.378 µM (active); in test [15], 0.0141 µM (active); in test [16] it was > 8.61 µM (inactive); in [17], 0.00486 µM (active); in [19], 0.00318 µM (active).
